Experimental findings from PubChem BioAssay AID1648 (Sanford-Burnham Center for Chemical Genomics, 2009) are described below.

The assay has as its target Serine/threonine-protein kinase mTOR (Homo sapiens) (UniProt P42345). Kind of assay: mTOR FRB domain ligand binding – biophysical, NMR (AID 1648). As to conditions: NMR binding to FRB domain, chemical shift.

By Kd is commonly meant a measure of binding affinity in units of concentration.

The structures appear in SMILES notation. Active and inactive are the calls of the source. No rule for the calls is given here.

Serine/threonine-protein kinase mTOR (Homo sapiens), sequence (P42345 2015-2114): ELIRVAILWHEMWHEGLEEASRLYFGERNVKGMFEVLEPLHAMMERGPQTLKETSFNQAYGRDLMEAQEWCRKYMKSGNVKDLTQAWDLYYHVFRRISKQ

As to `CS(=O)(=O)Nc1ccc(C(=O)N2CCCCC2)cc1`, the Kd was > 4 mM (inactive). Then `Cc1sc2nc(-c3ccco3)oc(=O)c2c1C`, with > 4 mM (inactive); and `NC(=O)c1cc(N)cc(C(N)=O)c1`, with > 4 mM (inactive); and `c1cncc(Nc2nc(-c3cccnc3)cs2)c1`, with > 4 mM (inactive).

In the case of `O=C1N=C(N2CCOCC2)S/C1=C\c1cccnc1`, the Kd was > 4 mM (inactive). Next, `Cc1ccc(NC(=O)/C=C2\SC(=O)NC2=O)cc1`: > 4 mM (inactive); `CC(C)c1ccc2c(c1O)CC[C@H]1C3=C(CC[C@]21C)C(=O)OC3`: > 4 mM (inactive). Next, `Cc1cc(C(=O)Nc2sc(C)c(C)c2C#N)c(C)o1`: > 4 mM (inactive). Then `CC(=O)c1c(C)nc(-c2cccs2)n1O`, with > 4 mM (inactive). With `Cc1cc(C)n(CCC(=O)O)n1`, the Kd was > 4 mM (inactive). Then `O=C(CSc1cccc2cccnc12)N1CCCC1`, with > 4 mM (inactive); and `COc1cccc(O)c1O`, with > 4 mM (inactive); and `COc1ncnc(N)c1[N+](=O)[O-]`, with > 4 mM (inactive). `O=C(CSc1ncccn1)NCc1ccco1`: the Kd is > 4 mM (inactive). Then `COc1cc2c(cc1OC)Cc1cc(OC)c(OC)cc1Cc1cc(OC)c(OC)cc1C2`, with > 4 mM (inactive); and `Cc1c(C(=O)Nn2cnnc2)oc2ccccc12`, with > 4 mM (inactive); and `O=C(O)CCCc1nc2ccccc2s1`, with > 4 mM (inactive). Then `COc1ccccc1-c1c(C)nn2c(C)c(C(C)=O)cnc12`, with > 4 mM (inactive); and `CC(=O)O[C@H]1CC[C@@]2(C)C(CC[C@]3(C)C2C(=O)C=C2C4[C@@H](C)[C@H](C)CC[C@]4(C(=O)O)CC[C@]23C)C1(C)C` (some centres undefined), with > 4 mM (inactive). Then `O=C(O)C1CCCN1Cc1c[nH]c2ccccc12` (centres undefined), with > 4 mM (inactive); and `CC(=O)c1cccc(NC2=NCC(C)(C)S2)c1`, with > 4 mM (inactive); and `CNC(=O)Nc1cccc(C(F)(F)F)c1`, with > 4 mM (inactive). Take `Nc1ccc(S(=O)(=O)N2CCOCC2)cc1`: the Kd was > 4 mM (inactive). Regarding `Cc1nc(-c2ccc(C(=O)O)s2)cs1`, the Kd was > 4 mM (inactive).

Turning to `COC1=CC(C)[C@@H]2C[C@H]3OC(=O)C[C@H]4C(C)=C(OC)C(=O)C([C@@]34C)[C@@]2(C)C1=O` (some centres undefined), the Kd was > 4 mM (inactive). Regarding `CC1=C(/C=C/C(C)=C/C=C/C(C)=C/CO)C(C)(C)CCC1`, the Kd is > 4 mM (inactive).

Consider `OCc1cccc2c1OCCO2`, for which the Kd is > 4 mM (inactive). Next, `NC(=O)CSc1nc2ccccc2c(=O)[nH]1`: > 4 mM (inactive).

For the compound `Nc1ccccc1C(=O)N1CCOCC1`, the Kd is > 4 mM (inactive). Next, `COC(=O)C1[C@H]2C[C@H]3c4[nH]c5ccccc5c4CCN3C[C@@H]2CC[C@@H]1O` (some centres undefined): > 4 mM (inactive); `COC(=O)C1CCN(c2ccc(Cl)nn2)CC1`: > 4 mM (inactive); `COc1ccc(C(N)=O)cc1NC(C)=O`: > 4 mM (inactive). Next, `OCc1ccc(-c2ccccn2)s1`: > 4 mM (inactive).

Regarding `COC(=O)c1cccc2cc[nH]c12`, the Kd is > 4 mM (inactive). Next, `c1ccc(-n2nnnc2-n2cnc3ccccc32)cc1`: > 4 mM (inactive); `COc1c2ccoc2cc2oc(=O)ccc12`: > 4 mM (inactive). Next, `CC(=O)c1ccc(N2C(=O)C(C(C)C)NC2=S)cc1` (centres undefined): > 4 mM (inactive); `Cc1nc(-c2ccccc2)sc1C(N)=O`: > 4 mM (inactive); `O=C1c2cccnc2C(=O)N1Cc1ccco1`: > 4 mM (inactive). Regarding `Cn1nnc2cc(C(=O)Nc3cccnc3)ccc21`, the Kd is > 4 mM (inactive). For the compound `COc1cc2[nH]c(=S)n(C)c(=O)c2cc1OC`, the Kd was > 4 mM (inactive). Then `OC1CNCc2cc3c(cc21)OCCO3` (centres undefined), with > 4 mM (inactive); and `CCn1cnc2cc([N+](=O)[O-])ccc2c1=O`, with > 4 mM (inactive); and `Cc1cc(C)n(CCCC(=O)O)n1`, with > 4 mM (inactive). Next, `COc1ccccc1NC(=O)CCC(=O)O`: > 4 mM (inactive); `Cc1ccc(-c2nn(C)c(=O)c3ccccc23)cc1CO`: > 4 mM (inactive); `c1ccc2c(c1)nnn2C1CCNCC1`: > 4 mM (inactive). For `Cc1cc(C(=O)NC(C)c2ccncc2)no1` (centres undefined), the Kd was > 4 mM (inactive). For the compound `O=S(=O)(N1CCCCC1)n1nnc2ccccc21`, the Kd is > 4 mM (inactive). In the case of `Cc1nn(-c2ccccc2)nc1C(=O)O`, the Kd is > 4 mM (inactive). Next, `CC(=O)c1cccc(N=C2NC(=O)CS2)c1`: > 4 mM (inactive); `CC(C)=CCOc1cc2oc(=O)ccc2cc1O`: > 4 mM (inactive); `NC(=O)c1ccc(C(N)=O)cc1`: > 4 mM (inactive).

As to `O=C(c1ccc(F)cc1)N1CCN(c2ncccn2)CC1`, the Kd was > 4 mM (inactive). With `CC(=O)NN1C(=O)/C(=C\c2ccc(O)cc2)SC1=S`, the Kd is > 4 mM (inactive). Then `CNC(=O)Oc1ccc2c(c1)[C@]1(C)CCN(C)[C@@H]1N2C`, with > 4 mM (inactive); and `Cc1c(C(=O)Nc2ccncc2)oc2c1C(=O)CC(C)(C)C2`, with > 4 mM (inactive). Then `NC1=NC(=O)/C(=C\c2ccco2)S1`, with > 4 mM (inactive); and `Cc1ccccc1-n1c(-c2ccncc2)n[nH]c1=S`, with > 4 mM (inactive); and `O=C(NC1=NCCS1)c1ccc([N+](=O)[O-])cc1Cl`, with > 4 mM (inactive).

With `Cn1c(SCC(N)=O)nc2c1c(=O)[nH]c(=O)n2C`, the Kd was > 4 mM (inactive).

Turning to `COc1ccc(NC(=O)C2CC(=O)N=C(N)S2)cc1` (centres undefined), the Kd is > 4 mM (inactive). Then `CN1CCN(C(=O)Nc2cccc3ccccc23)CC1`, with > 4 mM (inactive); and `O=C(O)/C=C/C(=O)Nc1ccccc1C(F)(F)F`, with > 4 mM (inactive). Then `CCc1ccc(/C=N/n2cnnc2)cc1`, with > 4 mM (inactive); and `Cc1onc(-c2c(F)cccc2Cl)c1C(N)=O`, with > 4 mM (inactive).

Turning to `CC(=O)NC(=S)Nc1ccccc1N1CCOCC1`, the Kd was > 4 mM (inactive). Then `C=CCCCCCCCCCCCC(O)CC(O)COC(C)=O` (centres undefined) (tested in a mixture with another compound), with > 4 mM (inactive); and `CC(=O)Nc1cccc(N2C(=O)CCC2=O)c1`, with > 4 mM (inactive); and `Cc1nnc(NCCO)[nH]c1=O`, with > 4 mM (inactive).

With `Cc1nc2cc(NC(=O)Nc3nccs3)ccc2n1C`, the Kd was > 4 mM (inactive). Take `COC(=O)CC1=Nc2ccccc2NC(=O)C1`: the Kd is > 4 mM (inactive). For `CC(=O)c1cccc(NC(=O)N2CCc3ccccc3C2)c1`, the Kd was > 4 mM (inactive).

`CC(NC(=O)c1ccco1)c1ccc2c(c1)OCCO2` (centres undefined): the Kd is > 4 mM (inactive).
